According to patent US20180110824A1, “Macrocyclic Modulators of the Ghrelin Receptor” (Ocera Therapeutics, Inc., priority 2016, published 2018):
Like-named read-outs stand apart in the source and are kept apart here.

Tests used:
[1] = molecular target: T1, human growth hormone secretagogue receptor (hGHS-R1a) (Homo sapiens, UniProt Q92847); assay: Competitive radioligand binding assay (ghrelin receptor), [125I]-ghrelin displacement on GHS-R/HEK 293 membranes
T1 construct: purchased PerkinElmer BioSignal #RBHGHSM; host or cells: HEK-293, stably transfected
T1 sequence (Q92847 whole entry): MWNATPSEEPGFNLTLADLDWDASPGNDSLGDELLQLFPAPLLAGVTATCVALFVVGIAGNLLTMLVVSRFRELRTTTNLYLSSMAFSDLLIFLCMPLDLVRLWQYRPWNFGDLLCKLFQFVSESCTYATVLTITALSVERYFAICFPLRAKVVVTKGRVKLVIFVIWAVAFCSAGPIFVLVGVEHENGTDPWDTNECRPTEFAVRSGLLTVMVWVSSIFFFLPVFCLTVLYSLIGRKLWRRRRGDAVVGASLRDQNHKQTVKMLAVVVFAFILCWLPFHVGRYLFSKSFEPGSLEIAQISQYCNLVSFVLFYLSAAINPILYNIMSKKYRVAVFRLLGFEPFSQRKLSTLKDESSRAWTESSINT

[2] = molecular target: T2, human ghrelin receptor (hGHS-R1a) (Homo sapiens, UniProt Q92847); assay: Aequorin functional assay (ghrelin receptor), CHO-K1 cells co-expressing Gα16 and aequorin; type: cell-based; settings: Table 4; functional (agonist) activity; TFA salts unless otherwise noted; read-out: EC50
T2 construct: host or cells: CHO-K1 co-expressing Gα16 and mitochondrially targeted aequorin
T2 sequence (Q92847 whole entry): as above
Procedure: This cell line is typically constructed by transfection of the human ghrelin receptor into CHO-K1 cells co-expressing Gα16 and the mitochondrially targeted Aequorin (Ref #ES-WT-A5). • 1. […] Assay buffer: DMEM (Dulbecco's Modified Eagles Medium) containing 0.1% BSA (bovine serum albumin; pH 7.0). • 3. Coelenterazine (Molecular Probes, Leiden, The Netherlands). • Final test concentrations (N=8) for compounds of the invention: 10, 1, 0.3, 0.1, 0.03, 0.01, 0.003, 0.001 μM.
Stock solutions of compounds (10 mM in 100% DMSO) were provided frozen on dry ice and stored at −20° C. prior to use. […] Assay plates were then prepared by appropriate dilution in DMEM medium containing 0.1% BSA. Under these conditions, the maximal final DMSO concentration in the assay was <0.6%.
AequoScreen™ cells were collected from culture plates with Ca^2+ and Mg^2+-free phosphate buffered saline (PBS) supplemented with 5 mM EDTA, pelleted for 2 min at 1000×g re-suspended in DMEM—Ham's F12 containing 0.1% BSA at a density of 5×10^6 cells/mL, and incubated O/N at rt in the presence of 5 μM coelenterazine. After loading, cells were diluted with assay buffer to a concentration of 5×10^5 cells/mL.
For agonist testing, 50 μL of the cell suspension was mixed with 50 μL of the appropriate concentration of test compound or ghrelin (reference agonist) in 96-well plates (duplicate samples). Ghrelin (reference agonist) was tested at several concentrations concurrently with the test compounds in order to validate the experiment. The emission of light resulting from receptor activation in response to ghrelin or test compounds was recorded using the Hamamatsu FDSS 6000 reader (Hamamatsu Photonics K.K., Japan).
Results were expressed as Relative Light Units (RLU). […] EC50, Hill slope and % Emax values are reported.
• 1. Assay performed on CHO-K1 cells expressing the transfected, cloned human ghrelin receptor (hGHS-R1a) and Gα16. • 2. Suspended cells incubated O/N with coelenterazine. • 3. Stimulation of hGHS-R1a activates Gα16, causing […] Ca2+ release which ultimately leads to the oxidation of coelenterazine and the emission of a quantitative luminescent signal. • 4. Ghrelin was used as the positive control. • 5.

[3] = molecular target: motilin receptor (Homo sapiens, UniProt O43193); assay: Selectivity for the ghrelin receptor versus the motilin receptor; type: binding
motilin receptor, sequence (O43193 whole entry, species assumed): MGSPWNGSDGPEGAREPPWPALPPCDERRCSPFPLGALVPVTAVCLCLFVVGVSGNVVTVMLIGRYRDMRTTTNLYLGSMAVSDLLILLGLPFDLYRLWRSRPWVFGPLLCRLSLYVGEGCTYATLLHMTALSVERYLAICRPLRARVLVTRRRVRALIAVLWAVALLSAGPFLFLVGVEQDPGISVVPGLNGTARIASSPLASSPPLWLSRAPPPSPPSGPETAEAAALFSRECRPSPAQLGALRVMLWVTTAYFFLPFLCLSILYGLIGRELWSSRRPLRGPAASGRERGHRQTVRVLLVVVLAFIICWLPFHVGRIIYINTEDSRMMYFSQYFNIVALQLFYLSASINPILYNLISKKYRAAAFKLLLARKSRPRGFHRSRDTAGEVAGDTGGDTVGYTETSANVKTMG
Description: The level of agonist activity and selectivity for representative compounds of the invention are shown below in Table 4.

[4] = Table 3B, binding activity at the human ghrelin receptor, read-out: Ki
[5] = Table 4, TFA salts unless otherwise noted, read-out: Ki
[6] = Binding activity at the human ghrelin receptor, [125I]-ghrelin displacement, read-out: Ki
[7] = [125I]-ghrelin displacement, GHS-R/HEK 293 membranes, class symbols, read-out: Binding Activity at the Human Ghrelin Receptor (Ki)

Ki [1, 4] [nM]	Ki [1, 5] [nM]	EC50 [2] [nM]	Ki [1, 6] [nM]	Selectivity [3]	Ki [1, 7] [nM]	Ki ([1]; Table 3E, read-out: Ki) [nM]	SMILES
10 to 100	0.1 to 10	> 1000	–	–	–	–	CCC(C)[C@@H]1NC[C@@H](C)Oc2ccccc2CCCNC(=O)[C@H](Cc2cccc(Cl)c2)NC(=O)C2(CCCC2)NC1=O (stereo partly shown) [368a]
–	100 to 1000	100 to 1000	100 to 1000	–	–	–	CC(C)[C@@H]1NCCOc2ccccc2CCCNC(=O)[C@@H](Cc2ccccc2)NC(=O)CN(C)C1=O [Compound 3]
–	–	–	–	3012/1	–	–	CCCC1NCCOc2ccccc2CCCNC(=O)C(Cc2ccccc2)NC(=O)C(C)N(C)C1=O (stereo not shown) [Compound 4]
–	100 to 1000	100 to 1000	100 to 1000	–	–	–	CCC(C)C1NCCOc2ccccc2CCCNC(=O)C(Cc2ccccc2)NC(=O)C(C)NC1=O (stereo not shown) [compound 2]
–	100 to 1000	100 to 1000	100 to 1000	–	–	–	CCC[C@@H]1NCCOc2ccccc2CCCNC(=O)[C@@H](Cc2ccccc2)NC(=O)CN(CC)C1=O [compound 5]
–	–	–	–	>1700/1	–	–	CCC(C)C1NCCOc2ccccc2CCCNC(=O)C(Cc2ccccc2)NC(=O)C(C)N(C)C1=O (stereo not shown) [compound 15]
–	–	–	–	>2000/1	–	–	CC[C@@H](C)[C@@H]1NCCOc2ccccc2CCCNC(=O)[C@@H](Cc2ccccc2)NC(=O)[C@@H](C)N(C)C1=O [compound 16]
–	–	–	–	>1700/1	–	–	CC(C)C1NCCOc2ccccc2C=CCNC(=O)C(Cc2ccccc2)NC(=O)C(C)N(C)C1=O (stereo not shown) [compound 19]
–	10 to 100	1 to 100	10 to 100	–	–	–	CCC(C)[C@@H]1NC[C@@H](C)Oc2ccccc2CCCNC(=O)[C@@H](Cc2ccccc2)NC(=O)[C@@H](C)N(C)C1=O (stereo partly shown) [compound 35]
–	–	100 to 1000	10 to 100	–	–	–	CCC(C)[C@@H]1NC[C@@H](C)Oc2ccccc2CCCNC(=O)[C@@H](Cc2ccccc2)NC(=O)[C@@H](C)N(C)C1=O (stereo partly shown) [compound 36]
–	100 to 1000	1 to 100	100 to 1000	–	–	–	CC(C)C[C@@H]1NCCOc2ccccc2/C=C/CNC(=O)[C@H](CC(C)C)NC(=O)C2(CCCC2)NC1=O [compound 47]
–	10 to 100	100 to 1000	100 to 1000	–	–	–	CC(C)C[C@@H]1NCCOc2ccccc2CCCNC(=O)[C@@H](Cc2ccccc2)NC(=O)C2(CCCC2)NC1=O [compound 97]
–	10 to 100	100 to 1000	100 to 1000	–	–	–	CC(C)C[C@@H]1NCCOc2ccccc2CCCNC(=O)[C@H](Cc2ccccc2)NC(=O)C2(CC2)NC1=O [compound 111]
–	100 to 1000	100 to 1000	100 to 1000	–	–	–	CC(C)[C@@H]1NCCOc2ccccc2/C=C/CNC(=O)[C@H](Cc2ccccc2)NC(=O)C2(CCOCC2)NC1=O [compound 140]
–	10 to 100	1 to 100	–	–	10 to 100	–	COc1ccc(C[C@@H]2NC(=O)C3(CCCC3)NC(=O)[C@H](CC(C)C)NCCOc3ccccc3/C=C/CNC2=O)cc1 [compound 156]
–	10 to 100	> 1000	–	–	10 to 100	10 to 100	C[C@@H]1C(=O)N[C@H](Cc2ccccc2)C(=O)NCCCc2ccccc2OCCN2CCCC[C@H]2C(=O)N1C [compound 226]
0.1 to 10	0.1 to 10	1 to 100	–	–	–	–	C[C@@H]1C(=O)N[C@H](Cc2ccc(Cl)cc2)C(=O)NCCCc2ccccc2OCCN[C@@H](C2CC2)C(=O)N1C [compound 299]
0.1 to 10	0.1 to 10	1 to 100	–	–	–	–	C[C@@H]1C(=O)N[C@H](Cc2c(F)c(F)c(F)c(F)c2F)C(=O)NCCCc2ccccc2OCCN[C@@H](C2CC2)C(=O)N1C [compound 318]
0.1 to 10	0.1 to 10	1 to 100	–	–	–	–	C[C@@H]1C(=O)N[C@H](Cc2ccc(C(F)(F)F)cc2)C(=O)NCCCc2ccccc2OCCN[C@@H](C2CC2)C(=O)N1C [compound 322]
10 to 100	10 to 100	1 to 100	–	–	–	–	C[C@@H]1C(=O)N[C@H](Cc2ccc(F)cc2)C(=O)NCC#Cc2ccccc2OCCN[C@@H](C2CC2)C(=O)N1C [compound 354]
10 to 100	10 to 100	1 to 100	–	–	–	–	CC1CNC(C2CC2)C(=O)N(C)C(C)C(=O)NC(Cc2ccc(F)cc2)C(=O)NCCCc2ccccc2O1 (stereo not shown) [compound 367]
